Reference: patent US20050026903A1, “CCK-1 receptor modulators” (priority 2003, published 2005)
Counter-ions that a name gives are not always drawn. Like-named read-outs stand apart in the source and are kept apart here.

Legend:
CCK-1 receptor = target: T1, CCK-1 receptor (Homo sapiens, UniProt P32238); test: CCK-1 receptor radioligand binding assay ([125I]-BH-CCK-8S competition, membranes of stably transfected CHO-K1 cells)
T1 construct: expressed in transfected cells; membranes
T1 sequence (P32238 1-428): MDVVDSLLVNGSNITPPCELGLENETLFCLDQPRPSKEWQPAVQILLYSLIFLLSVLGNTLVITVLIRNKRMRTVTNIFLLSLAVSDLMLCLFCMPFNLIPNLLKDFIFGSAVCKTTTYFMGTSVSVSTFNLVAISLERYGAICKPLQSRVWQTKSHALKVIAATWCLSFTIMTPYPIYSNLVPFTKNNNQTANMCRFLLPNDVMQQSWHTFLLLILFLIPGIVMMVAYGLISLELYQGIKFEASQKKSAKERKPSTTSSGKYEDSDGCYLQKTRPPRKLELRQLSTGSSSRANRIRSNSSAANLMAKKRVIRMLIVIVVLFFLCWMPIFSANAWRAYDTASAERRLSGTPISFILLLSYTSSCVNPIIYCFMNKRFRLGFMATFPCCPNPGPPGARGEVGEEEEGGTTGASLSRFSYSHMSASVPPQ
Procedure: CHO-K1 cells that had undergone stable transfection with the CCK-1 receptor were grown in DMEM supplemented with L-glutamine (2 mM), penicillin (50 units/mL) and streptomycin (50 μg/mL). Cells were cultured under continuous G418 selection (2 mM) and were harvested using a rubber cell scraper. CHO-K1 cells were sub-cultured a maximum of ten times before being reseeded from the original stocks.
Membranes were prepared from the stably transfected CHO-K1 cells. Frozen cell pellets (−40° C.) were thawed in 14 mL of buffer A (10 mM HEPES, 130 mM NaCl, 4.7 mM KCl, 5 mM MgCl, 1 mM EGTA and 15.4 mg/100 mL bacitracin at pH 7.2), adapted from Harper et al. (Br. J. Pharmacol. (1996) 118, pp 1717-1726). The thawed pellets were homogenized using a Polytron PT-10 (7×1 s). […]
All assays were conducted in 96-well plates (GF/B millipore filter plates) using buffer A, with 0.3 μM PD-134,308, for the dilutions. […] Total binding of [125I]—BH—CCK-8S was determined in the presence of 15 μL of buffer A. Non-specific binding of [125I]—BH—CCK-8S was determined in the presence of 15 μL of 100 μM 2-naphthalenesulphonyl L-aspartyl-(2-phenethyl)amide (2-NAP: see R. A. Hull et al., Br. J. Pharmacol. (1993) 108, pp 734-740), a CCK-1 receptor selective antagonist that is structurally unrelated to the radioligand [125I]—BH—CCK-8S. […] Bound radioactivity was determined using a gamma counter (count time=1 min). […]

COc1ccc(-n2nc(C[C@H](C([O])=O)c3cccc(C)c3)cc2-c2ccc(Cl)c(Cl)c2)cc1 (as salt: sodium) [Example 1, (S)-Sodium; 3-[5-(3,4-dichloro-phenyl)-1-(4-methoxy-phenyl)-1H-pyrazol-3-yl]-2-m-tolyl-propionate]
melting point: 295.5 to 297.5 °C

COc1ccc(-n2nc(CC(C(=O)O)c3cccc4ccccc34)cc2-c2ccc3c(c2)OCO3)cc1 (racemic) [Example 27, 3-[5-Benzo[1,3]dioxol-5-yl-1-(4-methoxy-phenyl)-1H-pyrazol-3-yl]-2-naphthalen-1-yl-propionic acid]
Ki (CCK-1 receptor; [125I]-BH-CCK-8S competition, membranes of CHO-K1 cells stably transfected with CCK-1 receptor, 0.3 μM PD-134,308 present, read-out: pKi (converted)): 6.31 nM

COc1ccc(-n2nc(C[C@H](C([O])=O)c3cccc(C)c3)cc2-c2ccc(Cl)c(Cl)c2)cc1 [Example 1, (S)-Sodium; 3-[5-(3,4-dichloro-phenyl)-1-(4-methoxy-phenyl)-1H-pyrazol-3-yl]-2-m-tolyl-propionate]
Ki (CCK-1 receptor): 10 nM
